Data reported in US10781224B2, “Bis(oxymethyl)phosphinic acid and biogenic metal salts thereof as regulators of plant growth and development” (priority 2016, dated 2020).

Tested on: rice (Diamant variety)
Test: Rice seed treatment with BHMPA salts: germinating power
Format: in vivo
Procedure, shortened: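 Seeds (50 per Petri dish on two layers of filter paper) soaked 1 h in BHMPA or its Ca, Mg, Na, Co, Mn, Cu or Zn salts at 1·10^−6-1·10^−12%, with water controls. Germination energy read on day 4, germination on day 8 (wheat) or day 7 (rice, corn), as % means of four replicates. Germinating power taken as root and sprout length plus wet and dry mass per 100 seedlings.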

[1] = rice seed treatment, comparison with Melaphen (Table XXXIII), solution 1 · 10^−11%
[2] = rice seeds, solution concentration 1 · 10^−6%
[3] = rice seeds, solution concentration 1 · 10^−7%
[4] = rice seeds, solution concentration 1 · 10^−8%
[5] = rice seeds, solution concentration 1 · 10^−9%
[6] = rice seeds, solution concentration 1 · 10^−10%
[7] = rice seeds, solution concentration 1 · 10^−11%
[8] = rice seeds, solution concentration 1 · 10^−12%
[9] = rice, vs control, 1·10^−11% solution

O=P([O-])(CO)CO.[Na+] [Na-salt, Sodium BHMPA Salt]
optimum concentration for treating rice seeds before sowing (rice): 1·10^−11%
Length, root [1]: 5.9 cm
Length, root, + % to control [1]: 23%
Length, sprout [1]: 3.4 cm
Length, sprout, + % to control [1]: 46%
Mass, dry, root [1]: 0.22 g/100 plantlings
Mass, dry, root, + % to control [1]: 5%
Mass, dry, sprout [1]: 0.26 g/100 plantlings
Mass, dry, sprout, + % to control [1]: 24%
Mass, wet, root [1]: 1.31 g/100 plantlings
Mass, wet, root, + % to control [1]: 34%
Mass, wet, sprout [1]: 2.22 g/100 plantlings
Mass, wet, sprout, + % to control [1]: 47%
Length, root [2]: 5.4 cm
Length, root, + % to control [2]: 4%
Length, sprout [2]: 2.3 cm
Length, sprout, + % to control [2]: 9.5%
Mass, dry, root [2]: 0.21 g/100 plantlings
Mass, dry, root, + % to control [2]: 5%
Mass, dry, sprout [2]: 0.28 g/100 plantlings
Mass, dry, sprout, + % to control [2]: 8%
Mass, wet, root [2]: 1.06 g/100 plantlings
Mass, wet, root, + % to control [2]: 16.5%
Mass, wet, sprout [2]: 1.73 g/100 plantlings
Mass, wet, sprout, + % to control [2]: 5.5%
Length, root [3]: 5.6 cm
Length, root, + % to control [3]: 8%
Length, sprout [3]: 2.4 cm
Length, sprout, + % to control [3]: 14%
Mass, dry, root [3]: 0.22 g/100 plantlings
Mass, dry, root, + % to control [3]: 10%
Mass, dry, sprout [3]: 0.30 g/100 plantlings
Mass, dry, sprout, + % to control [3]: 15%
Mass, wet, root [3]: 1.10 g/100 plantlings
Mass, wet, root, + % to control [3]: 21%
Mass, wet, sprout [3]: 1.81 g/100 plantlings
Mass, wet, sprout, + % to control [3]: 10%
Length, root [4]: 5.8 cm
Length, root, + % to control [4]: 11.5%
Length, sprout [4]: 2.6 cm
Length, sprout, + % to control [4]: 24%
Mass, dry, root [4]: 0.23 g/100 plantlings
Mass, dry, root, + % to control [4]: 15%
Mass, dry, sprout [4]: 0.31 g/100 plantlings
Mass, dry, sprout, + % to control [4]: 19%
Mass, wet, root [4]: 1.14 g/100 plantlings
Mass, wet, root, + % to control [4]: 25%
Mass, wet, sprout [4]: 1.89 g/100 plantlings
Mass, wet, sprout, + % to control [4]: 15%
Length, root [5]: 6.0 cm
Length, root, + % to control [5]: 15%
Length, sprout [5]: 2.8 cm
Length, sprout, + % to control [5]: 33%
Mass, dry, root [5]: 0.25 g/100 plantlings
Mass, dry, root, + % to control [5]: 25%
Mass, dry, sprout [5]: 0.33 g/100 plantlings
Mass, dry, sprout, + % to control [5]: 27%
Mass, wet, root [5]: 1.17 g/100 plantlings
Mass, wet, root, + % to control [5]: 28.5%
Mass, wet, sprout [5]: 2.00 g/100 plantlings
Mass, wet, sprout, + % to control [5]: 22%
Length, root [6]: 6.3 cm
Length, root, + % to control [6]: 21%
Length, sprout [6]: 3.5 cm
Length, sprout, + % to control [6]: 58%
Mass, dry, root [6]: 0.27 g/100 plantlings
Mass, dry, root, + % to control [6]: 35%
Mass, dry, sprout [6]: 0.35 g/100 plantlings
Mass, dry, sprout, + % to control [6]: 35%
Mass, wet, root [6]: 1.26 g/100 plantlings
Mass, wet, root, + % to control [6]: 38%
Mass, wet, sprout [6]: 2.18 g/100 plantlings
Mass, wet, sprout, + % to control [6]: 33%
Length, root [7]: 6.4 cm
Length, root, + % to control [7]: 23%
Length, sprout [7]: 4.0 cm
Length, sprout, + % to control [7]: 90%
Mass, dry, root [7]: 0.30 g/100 plantlings
Mass, dry, root, + % to control [7]: 50%
Mass, dry, sprout [7]: 0.39 g/100 plantlings
Mass, dry, sprout, + % to control [7]: 50%
Mass, wet, root [7]: 1.35 g/100 plantlings
Mass, wet, root, + % to control [7]: 48%
Mass, wet, sprout [7]: 2.30 g/100 plantlings
Mass, wet, sprout, + % to control [7]: 40%
Length, root [8]: 6.2 cm
Length, root, + % to control [8]: 19%
Length, sprout [8]: 3.6 cm
Length, sprout, + % to control [8]: 71%
Mass, dry, root [8]: 0.26 g/100 plantlings
Mass, dry, root, + % to control [8]: 30%
Mass, dry, sprout [8]: 0.33 g/100 plantlings
Mass, dry, sprout, + % to control [8]: 27%
Mass, wet, root [8]: 1.18 g/100 plantlings
Mass, wet, root, + % to control [8]: 30%
Mass, wet, sprout [8]: 2.23 g/100 plantlings
Mass, wet, sprout, + % to control [8]: 36%
dry mass of the roots increased by [9]: 50%
dry mass of the sprouts increased by [9]: 50%
length of the root increased by [9]: 23%
length of the sprout increased by [9]: 90%
wet mass of the roots increased by [9]: 48%
wet mass of the sprouts increased by [9]: 40%
